From article PMC9138505, “Small Molecule 20S Proteasome Enhancer Regulates MYC Protein Stability and Exhibits Antitumor Activity in Multiple Myeloma” (Biomedicines, 2022)
“And” between values parts separate entries of the source, which are not always exact repeats. Equal entries are not always repeated.

Columns and labels:
[1] = system: human constitutive 20S proteasome; assay: Proteasome activity in purified protein assay (fluorogenic AMC peptide substrates); format: biochemical
Protocol: The proteolytic activity of the 20S proteasome can be monitored in vitro by measuring the cleavage of fluorogenic peptide substrates for the different catalytic sites as an increase in 7-amino-4-methylcoumarin (AMC) fluorescence over time, as previously reported. Purified human 20S proteasome was pre-treated with a concentration range of TCH-165 or DMSO (vehicle control) for 15 min at 37 °C, on a black flat/clear bottom 96-well plate containing 1 nM of human constitutive 20S proteasome in 50 mM Tris-HCl pH 7.5. Fluorogenic substrates, Suc-LLVY-AMC (CT-L activity, 10 μM), Z-LLE-AMC (Casp-L activity, 10 μM), Boc-LRR-AMC (Tryp-L activity, 20 μM), were then added and the enzymatic activity measured at 37 °C on a SpectraMax M5e spectrometer by measuring an increase in the fluorescence unit per minute for 1 h at 380–460 nm. The release of AMC was monitored as fluorescence over time for 1 h and the resulting 20S activity changes were determined by comparing to the untreated 20S and calculating the fold-increase in activity over vehicle control for each analog at a given concentration.

MYC = MYC degradation in MM cells, Western blot; format: cell-based, human; conditions: RPMI-8226 cells
Protocol: Western blot: RPMI-8226 cells were grown to approximately 80% confluency in a T-75 flask. Cells were treated with either vehicle (DMSO) or TCH-165 at the indicated concentrations, for 4 h. In experiments involving bortezomib, cells were pre-treated with bortezomib (5 μM) for 1 h before adding TCH-165 or vehicle for a further 4 h. Cells were pelleted and washed with chilled PBS buffer (2X) and resuspended in chilled RIPA buffer supplemented with protease inhibitor cocktail (Sigma Aldrich; Burlington, MA, USA). Total protein was quantified by bicinchoninic acid assay (BCA assay, Thermofisher Scientific; Waltham, MA, USA), normalized to 2 mg/mL and boiled with 5X SDS loading buffer. Lysates (30 μg) were resolved on a 4–20% Tris/glycine gel and transferred to a PVDF membrane. The membrane was probed with anti MYC (Cell Signaling; cat#5605; Danvers, MA, USA) and anti-GAPDH-HRP (Santa Cruz; sc-47724 HRP; Dallas TX, USA) antibodies.

c-MYC = c-MYC degradation ELISA in L363 cells; format: cell-based, human; conditions: various concentrations, 4 h
Protocol: ELISA: c-MYC degradation in L363 and H929 cells. L363 cells were grown in T-25 flasks in RPMI-1640 medium supplemented with 15% heat-inactivated fetal bovine serum (FBS) and 1% penicillin/streptomycin at 37 °C and 5% CO2. H929 cells were grown in T-25 flasks in RPMI-1640 medium supplemented with 10% FBS, 0.05 mM 2-mercaptoethanol, and 1% penicillin/streptomycin. Cells were treated with DMSO, TCH-165, or bortezomib (BTZ) at the indicated concentrations for 4 h (0.1% final DMSO concentration). Following the 4-hour treatment, cells were pelleted, washed with chilled PBS buffer, and resuspended in chilled lysis buffer (10 mM Tris, 100 mM NaCl, 1 mM EDTA, 1 mM EGTA, 1 mM NaF, 20 mM Na4P2O7, 2 mM Na3VO4, 1% Triton X-100, 10% glycerol, 0.1% SDS, and 0.5% deoxycholate; pH 7.4) supplemented with Complete Mini Protease Inhibitor Cocktail (Sigma Aldrich). The lysate was clarified by centrifugation at 5000 rpm (4 °C) for 15 min. Total protein of the lysate was quantified by bicinchoninic acid assay (BCA assay, Thermofisher Scientific; Waltham, MA, USA). and normalized to 1.5 mg/mL total protein. The supplied protocol for the human c-MYC (Total) ELISA Kit (Invitrogen; Waltham, MA, USA) was used to determine the total c-MYC concentration of the lysates. Prior to loading lysate into ELISA plate wells, lysate (5 µL) was diluted into 45 µL of supplied standard diluent buffer.

[2] = system: MYC Reporter (Luc)-HCT-116 cells; assay: MYC-Luc reporter assay; format: cell-based
Protocol: The MYC Reporter (Luc)-HCT-116 Cell line, Catalog #60520, was bought from BPS Bioscience. MYC reporter (Luc)-HCT-116 cells were seeded in a white, clear bottom, 96-well microplate at 25,000 cells/well, in McCoy’s 5A media supplemented with 10% FBS and 1% penicillin/streptomycin. The plate was incubated at 37 °C with 5% CO2 overnight. The next day, cells were treated with 0.0 µM, 0.1 µM, 1.0 µM, 2.5 µM, 5.0 µM, 10 µM, or 20 µM TCH-165, in Opti-MEM supplemented with 0.5% FBS, 1% non-essential amino acids, 1 mM Sodium Pyruvate and 1% penicillin/streptomycin. The plate was incubated at 37 °C with 5% CO2 for 16 h. Firefly luminescence was measured using the One-Step Luciferase Assay System from BPS Biosciences.

RPMI-8226 cells = assay: Cell viability, CellTiter-Glo, 72 h; format: cell-based, human; conditions: RPMI-8226, 72 h
Protocol: RPMI-8226, L363 and NCI-H929 cells were obtained from ATCC (Manassas, VA, USA) and were maintained in RPMI medium supplemented with 10% fetal bovine serum, and 100 U/mL penicillin/streptomycin, at 37 °C with 5% CO2. DMSO was used as the compound vehicle or vehicle control at a 0.1% final concentration for both cell culture and enzyme assay.
Error bars represent SD for triplicate wells.

26S proteasome = system: 26S proteasome; set-up: method as in PMID 29897236; conditions: cited from earlier work
[3] = system: RPMI-8226 subcutaneous xenograft; assay: RPMI-8226 xenograft tumor model
[4] = system: primary human MM cells of newly diagnosed patient; assay: Primary cell viability, CellTiter-Glo, 72 h
Excerpt: White blood cells (WBCs) were separated from red blood cells by the Ficoll density gradient. Multiple myeloma cells were then isolated from WBCs using human CD138 affinity magnetic beads (Miltenyi Biotec; cat#130-093-062; Gaithersburg, MD, USA) following the manufacturer’s protocol. Cells were cryopreserved in 10% DMSO in FBS. Revived cells were maintained in an RPMI medium with 10% FBS for 10 days prior to treatment. […] Cells were equilibrated to RT and CellTiter-Glo (Promega; Madison, WI, USA) solution (100 μL) was added and incubated with shaking for 10 min at RT. The assay plate was then allowed to equilibrate for 5 min at RT and luminescent readings were taken on a SpectraMax® M5. Data are presented as a percentage of the vehicle control for each experimental condition, after background subtraction. Error bars represent SD for triplicate wells.

CCOC(=O)[C@]1(c2ccccc2)N=C(c2ccc(OC)cc2)N(Cc2ccccc2)[C@@H]1c1ccc(NCc2ccccc2)cc1 [TCH-165]
EC200 (concentration at which TCH-165 doubles 20S activity) ([1]; CT-L site (b-5), substrate Suc-LLVY-AMC): 1.5 µM | Fold^M (maximum fold enhancement of 20S activity) ([1]; CT-L site, Suc-LLVY-AMC): 810% | Fold^M (maximum fold enhancement of 20S activity) ([1]; Casp-L site, Z-LLE-AMC): 1290% | Fold^M (maximum fold enhancement of 20S activity) ([1]; Tryp-L site, Boc-LRR-AMC): 500% | efficacy of TCH-165 on MYC protein levels with proteasome blocked (MYC; TCH-165 5 μM with BTZ 5 μM): nearly completely abrogated | MYC protein levels compared to vehicle control (MYC; TCH-165 5 μM, 4 h): reduced MYC protein levels | MYC clearance (percent MYC remaining) (c-MYC): induced clearance of MYC | EC50 ([2]; Homo sapiens, stably transfected HCT-116 cells, 16 h, 95% CI 2.46–2.95, read-out: EC50 of decrease of MYC-mediated luciferase transcription): 2570 nM | MYC-mediated luciferase transcription with addition of bortezomib ([2]; TCH-165 3 μM after bortezomib 10 nM, 2 h pre-incubation): restored luciferase transcription back to the levels of the vehicle control | CC50 (RPMI-8226 cells; Homo sapiens): ~1000 nM | CC50 (RPMI-8226 cells): 900 nM | 26S proteasome activity (26S proteasome): not affected | concentrations at which structured proteins targeted by the 26S-ubiquitin-dependent proteasome system were not affected (26S proteasome): < 30 µM | concentration at which disassembly of the 26S proteasome inhibited 26S-mediated degradation of ubiquitinylated substrates (26S proteasome; various cell lines, including RPMI-8226): > 30 µM | reduction of tumor growth compared to vehicle control ([3]; 100 mg/kg bid oral gavage, after 42 days, p < 0.05): 75.71% and 76% | loss of body weight ([3]; SCID mice, 100 mg/kg bid oral): < 10% | average tumor volume ([3]; after 42 days, TCH-165 100 mg/kg bid oral, bortezomib 0.375 reduced to 0.09 mg/kg i.v. 3X per week): 304.43 (±49.50) mm^3 | CC50 [4]: 1000 nM
